Experimental findings from US20220348590A1, “CYCLOOXYGENASE-2 INHIBITORS AND USES THEREOF” (The Board Institute, Inc., priority 2019, published 2022) are described below.

Read-outs that look alike come from different tables or passages of the source.

For this test, the target named is T1, human recombinant COX2 (hCOX2) (UniProt P35354).
T1 sequence (P35354 1-604): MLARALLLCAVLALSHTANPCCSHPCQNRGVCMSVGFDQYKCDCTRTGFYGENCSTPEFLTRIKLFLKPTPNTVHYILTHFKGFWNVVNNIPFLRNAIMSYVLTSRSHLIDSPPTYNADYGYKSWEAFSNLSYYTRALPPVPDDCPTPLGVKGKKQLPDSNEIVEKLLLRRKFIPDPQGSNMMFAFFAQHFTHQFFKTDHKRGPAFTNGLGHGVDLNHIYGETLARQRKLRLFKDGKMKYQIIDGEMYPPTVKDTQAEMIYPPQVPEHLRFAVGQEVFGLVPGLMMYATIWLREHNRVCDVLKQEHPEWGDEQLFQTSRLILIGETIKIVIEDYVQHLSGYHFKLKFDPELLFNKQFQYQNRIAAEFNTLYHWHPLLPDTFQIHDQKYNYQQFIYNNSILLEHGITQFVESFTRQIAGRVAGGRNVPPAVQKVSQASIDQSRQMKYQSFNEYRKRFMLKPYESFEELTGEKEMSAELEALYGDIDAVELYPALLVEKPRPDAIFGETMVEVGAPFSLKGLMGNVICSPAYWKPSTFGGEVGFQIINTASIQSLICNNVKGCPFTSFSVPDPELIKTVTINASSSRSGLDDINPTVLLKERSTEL
Kind of test: LCMS-based COX2 enzymatic inhibition assay (PGE2 quantification). Conditions: for IC50: average. In kind it is biochemical. The arrangement: COX2 2 minutes pge2/pge2d4 area ratio Avg; other: 2 minutes; readout pge2/pge2d4 area ratio; average; COX2 2 minutes pge2/pge2d4 area ratio Avg; LLE; average LLE; COX2 2 minutes pge2 area (counts) Avg; readout pge2 area (counts); other: 2 min; "ovine COX2 (oCOX2), human recombinant COX2 (hCOX2)". Summed up:
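PGE2 formed from arachidonic acid (final 5 μM, 2 min) was measured by LC-MS-MS against DMSO controls. Enzyme (oCOX-1 0.1 μg or hCOX2 0.2 μg) with hematin/epinephrine cofactors at pH 8.0 was given 10 min at 37 °C with compound first. Twelve-point curves run three times gave IC50.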

The mark [1] stands for this setting: 2 minutes, readout pge2/pge2d4 area ratio, average LLE.
[2] abbreviates: 2 minutes, readout pge2/pge2d4 area ratio, read-out: COX2 2 minutes pge2/pge2d4 area ratio Avg. IC50.
[3] abbreviates: 2 minutes, readout pge2 area (counts), average LLE.
Setting [4] is: 2 minutes, readout pge2 area (counts), read-out: COX2 2 minutes pge2 area (counts) Avg. IC50.
Where [5] appears, read: read-out: COX2 2 minutes pge2/pge2d4 area ratio Avg. IC50 (microM), 2 minutes, readout pge2/pge2d4 area ratio.

Consider `Cn1ccc(CNc2cccc(-c3ccc(S(C)(=O)=O)cc3)n2)c1` [Compound 108], for which the “COX2 2 minutes pge2/pge2d4 area ratio Avg. LLE” value under setting [1] was found to be 3.847. The IC50 amounted to 0.0945 µM under setting [2] and 0.0799 µM under setting [4]. The “COX2 2 minutes pge2 area (counts) Avg. LLE” value (shortened to “COX2 2 minutes pge2 area”) under setting [3] was found to be 3.926.
Consider `CS(=O)(=O)c1ccc(-c2cncc(N3CCC4(CCCC4)CC3)n2)cc1` [Compound 319], for which, under setting [5], the IC50 stood at 5.2 µM.
For the compound `C[C@@H](Nc1cccc(-c2ccc(S(C)(=O)=O)cc2)n1)c1ccoc1` (single isomer, unassigned) [Compound 112], the “COX2 2 minutes pge2/pge2d4 area ratio Avg. LLE” value under setting [1] stood at 3.614. Further, the IC50 under setting [2] amounted to 0.102 µM and the IC50 under setting [4] came out at 0.108 µM. Further, under setting [3], the “COX2 2 minutes pge2 area” value is on record as 3.525.
As for `CN1CC[C@H](CNc2cncc(-c3ccc(S(C)(=O)=O)cc3)n2)C1` [Compound 307], the IC50 under setting [5] came out at 5.2 µM.
As for `CS(=O)(=O)c1ccc(-c2cccc(C3CC3c3ccoc3)n2)cc1` (single isomer, unassigned) [Compound 177, 2-[2-(furan-3-yl)cyclopropyl]-6-(4-methanesulfonylphenyl)pyridine], the “COX2 2 minutes pge2/pge2d4 area ratio Avg. LLE” value under setting [1] was 3.065. For the same compound, the IC50 under setting [2] came to 0.534 µM and the IC50 under setting [4] was found to be 0.635 µM. Further, the “COX2 2 minutes pge2 area” value under setting [3] is reported as 2.982.
In the same order, the values of `CS(=O)(=O)c1ccc(-c2nc(NCc3cccs3)cnc2C(N)=O)cc1` [Compound 257] are 4.28, 4.09 µM, 3.49 µM and 4.347.
As for `CS(=O)(=O)c1ccc(-c2cncc(NCc3ccoc3)c2)cc1` [Compound 174], the IC50 reads like this: under setting [2], 0.484 µM; under setting [4], 0.481 µM.
Regarding `CN1CC[C@@H](CNc2cncc(-c3ccc(S(C)(=O)=O)cc3)n2)C1` [Compound 306], under setting [3], the “COX2 2 minutes pge2 area” value is on record as 4.594. The IC50 under setting [5] is 5.2 µM.
As for `CS(=O)(=O)c1ccc(-c2ccc3ccn(-c4ccccc4)c3n2)cc1` [Compound 146], the “COX2 2 minutes pge2/pge2d4 area ratio Avg. LLE” value under setting [1] is given as 2.102. The IC50 reads like this: under setting [2], 0.248 µM; under setting [4], 0.201 µM. Besides, the “COX2 2 minutes pge2 area” value under setting [3] is on record as 2.132.
Take `COc1ccc(-c2ccc(S(C)(=O)=O)cc2)nc1NCc1cccs1` [Compound 160]: the “COX2 2 minutes pge2/pge2d4 area ratio Avg. LLE” value under setting [1] is 3.162. Further, the IC50 under setting [2] was determined as 0.385 µM and the IC50 under setting [4] was found to be 0.361 µM. Moreover, under setting [3], the “COX2 2 minutes pge2 area” value came out at 3.174.
With `CS(=O)(=O)c1ccc(-c2nc(NCc3cccs3)cnc2C(=O)O)cc1` [Compound 305], under setting [5], the IC50 amounted to 5.2 µM.
On to `CS(=O)(=O)c1ccc(-n2ccc3ccc(Cc4cccs4)nc32)cc1` [Compound 56], for which the IC50 amounted to 0.0305 µM under setting [2] and 0.0329 µM under setting [4].
Consider `CS(=O)(=O)c1ccc(-c2cccc(NCc3ccco3)n2)cn1` [Compound 250], for which the “COX2 2 minutes pge2/pge2d4 area ratio Avg. LLE” value under setting [1] turned out to be 3.529. Moreover, the IC50 is 3.44 µM under setting [2] and 3.47 µM under setting [4]. Also, the “COX2 2 minutes pge2 area” value under setting [3] was 3.534.
In the same order, the values of `CS(=O)(=O)c1ccc(-c2cncc(NCc3cccs3)n2)c(O)c1` [Compound 137] are 4.977, 0.197 µM, 0.215 µM and 4.936.
As to `COc1ncc(NCc2ccccn2)nc1-c1ccc(S(C)(=O)=O)cc1` [Compound 228], the “COX2 2 minutes pge2/pge2d4 area ratio Avg. LLE” value under setting [1] was found to be 4.528. Further, the IC50 reads like this: under setting [2], 2.12 µM; under setting [4], 1.8 µM. For the same compound, the “COX2 2 minutes pge2 area” value under setting [3] is on record as 4.5985.
Consider `CS(=O)(=O)c1ccc(-c2cnc(C(F)(F)F)c(NCc3cccs3)n2)cc1` [Compound 144], for which the “COX2 2 minutes pge2/pge2d4 area ratio Avg. LLE” value under setting [1] is listed as 3.605. Besides, the IC50 is 0.234 µM under setting [2] and 0.229 µM under setting [4]. Further, the “COX2 2 minutes pge2 area” value under setting [3] is 3.637.
With `COc1ncc(-c2ccc(S(C)(=O)=O)cc2)nc1NCc1ccccn1` [Compound 260], the “COX2 2 minutes pge2/pge2d4 area ratio Avg. LLE” value under setting [1] came to 4.221. In addition, the IC50 under setting [2] is 4.26 µM and the IC50 under setting [4] was 2.35 µM. For the same compound, the “COX2 2 minutes pge2 area” value under setting [3] is on record as 4.307.
In the same order, the values of `CS(=O)(=O)c1ccc(-c2cncc(Oc3ccccc3)n2)cc1` [Compound 132] are 4.451, 0.158 µM, 0.975 µM and 3.942.
`CS(=O)(=O)c1ccc(-c2cncc(NC3CCCCC3)n2)cc1` [Compound 180]: the “COX2 2 minutes pge2/pge2d4 area ratio Avg. LLE” value under setting [1] is listed as 3.95. In addition, the IC50 reads like this: under setting [2], 0.555 µM; under setting [4], 0.514 µM. The “COX2 2 minutes pge2 area” value under setting [3] turned out to be 3.961.
`Cc1cccc(COc2cncc(-c3ccc(S(C)(=O)=O)cc3)n2)c1` [Compound 285]: the “COX2 2 minutes pge2/pge2d4 area ratio Avg. LLE” value under setting [1] is listed as 2.514. The “COX2 2 minutes pge2 area” value under setting [3] was 2.514. Besides, the IC50 under setting [5] worked out at 5.2 µM.
For the compound `Cc1ccc(CNc2cccc(-c3ccc(S(C)(=O)=O)cc3)n2)o1` [Compound 117], the “COX2 2 minutes pge2/pge2d4 area ratio Avg. LLE” value under setting [1] was 4.029. The IC50 by setting is: under setting [2], 0.11 µM; under setting [4], 0.0615 µM. Moreover, under setting [3], the “COX2 2 minutes pge2 area” value turned out to be 4.185.
Consider `COc1cc(S(C)(=O)=O)ccc1-c1cncc(NCc2cccs2)n1` [Compound 179], for which, under setting [1], the “COX2 2 minutes pge2/pge2d4 area ratio Avg. LLE” value is recorded as 4.286. For the same compound, the IC50 came out at 0.546 µM under setting [2] and 0.387 µM under setting [4]. For the same compound, the “COX2 2 minutes pge2 area” value under setting [3] is 4.322.
On to `CS(=O)(=O)c1ccc(-c2cccc([C@@H](O)Cc3cccs3)n2)cc1` [Compound 205], for which, under setting [1], the “COX2 2 minutes pge2/pge2d4 area ratio Avg. LLE” value came out at 3.07. Further, the IC50 under setting [2] is 1.25 µM and the IC50 under setting [4] was 1.06 µM. Moreover, the “COX2 2 minutes pge2 area” value under setting [3] turned out to be 3.131.
`CS(=O)(=O)c1ccc(-c2cc(C(F)(F)F)nc(Oc3ccc(F)cc3)n2)cc1` [Compound 130]: under setting [1], the “COX2 2 minutes pge2/pge2d4 area ratio Avg. LLE” value came to 2.661. Further, the IC50 by setting is: under setting [2], 0.153 µM; under setting [4], 0.21 µM; (10 minutes, readout pge2 area (counts), read-out: COX2 10 minutes pge2 area (counts) Avg. IC50) 0.00942 µM; (30 minutes, readout pge2 area (counts), read-out: COX2 30 minutes pge2 area (counts) Avg. IC50) 0.000242 µM. Also, the “COX2 2 minutes pge2 area” value under setting [3] is on record as 2.626. For the same compound, the “COX2 10 minutes pge2 area (counts) Avg. LLE” value (10 minutes, readout pge2 area (counts), average LLE) was 4.116. Also, for the setting “30 minutes, readout pge2 area (counts), average LLE”, the “COX2 30 minutes pge2 area (counts) Avg. LLE” value is reported as 5.42.
For the compound `COc1ncc(NCc2ccno2)nc1-c1ccc(S(C)(=O)=O)cc1` [Compound 183], the “COX2 2 minutes pge2/pge2d4 area ratio Avg. LLE” value under setting [1] is on record as 5.678. Besides, the IC50 under setting [2] came to 0.566 µM and the IC50 under setting [4] is 0.596 µM. The “COX2 2 minutes pge2 area” value under setting [3] was 5.655.
Turning to `CS(=O)(=O)c1ccc(-c2cc3nn(Cc4cccs4)cc3cn2)cc1` [Compound 325], under setting [5], the IC50 came to 5.2 µM.
`Cn1ccc(COc2cncc(-c3ccc(S(C)(=O)=O)cc3)n2)n1` [Compound 181]: the “COX2 2 minutes pge2/pge2d4 area ratio Avg. LLE” value under setting [1] was 5.19. Moreover, the IC50 reads like this: under setting [2], 0.559 µM; under setting [4], 0.525 µM. For the same compound, the “COX2 2 minutes pge2 area” value under setting [3] is reported as 5.2357.
With `CS(=O)(=O)c1ccc(-c2cc(NCc3ccoc3)ccn2)cc1` [Compound 242], the IC50 under setting [2] was determined as 3.01 µM.
In the case of `Cn1ccc(CNc2cccc(-c3ccc(S(C)(=O)=O)cc3)n2)n1` [Compound 188], under setting [1], the “COX2 2 minutes pge2/pge2d4 area ratio Avg. LLE” value amounted to 4.275. Also, the IC50 reads like this: under setting [2], 0.652 µM; under setting [4], 0.546 µM. For the same compound, under setting [3], the “COX2 2 minutes pge2 area” value was determined as 4.373.
Take `CS(=O)(=O)c1ccc(-c2cccc(NCc3ccno3)n2)cc1` [Compound 175]: the “COX2 2 minutes pge2/pge2d4 area ratio Avg. LLE” value under setting [1] amounted to 4.7843. Besides, the IC50 is 0.508 µM under setting [2] and 0.638 µM under setting [4]. Moreover, the “COX2 2 minutes pge2 area” value under setting [3] was determined as 4.685.
For `CS(=O)(=O)c1ccc(-c2cncc(OCc3nccs3)n2)cc1` [Compound 147] the same measures were 4.543, 0.25 µM, 0.113 µM and 4.9085.
